Data published in patent US20260355318A1, “MOLECULAR MACHINES FOR TREATMENT OF CANCER, FUNGAL INFECTIONS, OR BACTERIAL INFECTIONS” (priority 2022, published 2026).
Converted amounts (≈) assume the structure as drawn.

Experiments:
[1] = Estimated rotation rate after light activation; settings: for estimated rotation rate after light activation: based on known motors with similar core skeletons
[2] = tested on: C. albicans; assay: Killing of C. albicans by MM 1 in de-energized, inhibited, uncoupled cells or with scavengers; assay type: cell-based, Candida albicans; settings: for effect of scavenger on MM-induced killing: MM 1 2×MIC
Experimental: FIG. 8: Survival curves of de-energized versus exponential, fully energized cells of C. albicans treated with visible-light-activated MM 1 (2×MIC). Energy depletion of C. albicans was achieved by resuspending cells in de-energization buffer (1 μM antimycin A, 5 mM 2-deoxy-D-glucose, 50 mM HEPES buffer, pH 7.0) for 3 h, as described for the determination of efflux pump activity in Example 1. Survival curves were generated according to the procedure described in Example 1 for time-kill assays. The dashed line indicates the detection limit of the method. The results are expressed as the average of at least three independent replicates±the standard error of the mean.
FIG. 9: Effect of pre-treatment with drugs targeting different individual components of the electron transport chain (see table inset) on the killing of C. albicans by light-activated MM 1 (2×MIC). Survival curves were generated according to the procedure described in Example 1 for time-kill assays. The dashed line indicates the detection limit of the method. The results are expressed as the average of at least three independent replicates±the standard error of the mean.
FIG. 10: Effect of pre-treatment with the uncoupling agents carbonyl [COMPOUND LEFT OUT] 4-(trifluoromethoxy)phenylhydrazone (FCCP) and carbonyl [COMPOUND LEFT OUT] 3-chlorophenylhydrazone (CCCP) on the killing of C. albicans by light-activated MM 1 (2×MIC). Survival curves were generated according to the procedure described in Example 1 for time-kill assays. The dashed line indicates the detection limit of the method. The results are expressed as the average of at least three independent replicates #the standard error of the mean.
Survival curves were generated according to the procedure described in Example 1 for time-kill assays. The dashed line indicates the detection limit of the method. The results are expressed as the average of at least three independent replicates±the standard error of the mean.
FIGS. 12A-12C show the effect of growth in the presence of different reactive oxygen species (ROS) scavengers and the iron scavenger 2,2′-dipyridyl (DP) on MM 1-induced killing of C. albicans. […] The results are expressed as the average of at least three independent replicates±the standard error of the mean. (FIG. 12B) Growth curves of C. albicans in the presence and absence of the iron scavenger DP, determined by monitoring the absorbance at 630 nm over time in a microplate reader. […] (FIG. 12C) Time profiles of mitochondrial ROS levels in C. albicans grown with and without DP after treatment with visible-light-activated MM 1 (2×MIC), detected with the MitoROS™ 580 fluorescent probe, according to the experimental procedure described in Example 1. […]

[3] = tested on: C. albicans; assay: MIC, visible-light-activated MMs and conventional antifungals, C. albicans; assay type: cell-based, Candida albicans (ATCC 18804); settings: Candida albicans, read-out: MIC of antifungal agent
Experimental: C. albicans cell suspensions were incubated with increasing concentrations of MMs and irradiated with 405-nm light at 292 mW cm^−2 for 5 min (87.6 J cm^−2). The minimum inhibitory concentration (MIC) was defined as the MM concentration resulting in no visible fungal growth after irradiation with 87.6 J cm^−2 of 405-nm light.
Cell suspensions for susceptibility testing (MMs and conventional antifungals) were prepared per the Clinical & Laboratory Standards Institute (CLSI) guidelines (CLSI, 2017; CLSI, 2008). Before testing, yeasts (C. albicans and S. cerevisiae) were sub-cultured in Sabouraud Dextrose Agar-Emmons Modification (SDAE) plates and grown for 24 h at 30 °C. Five independent colonies from 24-h-old plates were collected and diluted to ~10^4 colony forming units (CFU) per mL in sterile saline (CLSI, 2017). Molds (A. fumigatus and the dermatophytes T. rubrum and M. gypseum) were sub-cultured on SDAE medium and incubated for 7 days at 28 °C. Conidia were recovered by covering the plates with sterile distilled water and scraping the colonies. The suspensions were filtered (8-μm pore size) and diluted in saline to ~10^4 CFU mL^−1 (Santos and Hamdan, 2005).
After a 30-min incubation in the dark, cell suspensions were transferred to small, sterilized glass beakers, which were then placed in a water bath. Each sample was irradiated with 405-nm light at 292 mW cm^−2 for 5 min, corresponding to a light dose of 87.6 J cm^−2, determined using an S415C thermal power sensor (Thorlabs, Newton, MA, USA). During irradiation, the cell suspensions were agitated with a small metal stirrer. A thermocouple probe (model SC-TT-K-30-36-PP; Omega Engineering, Inc., Stanford, CT, USA) was used to monitor the temperature during irradiation. Irradiated cell suspensions were inoculated in 3-(N-morpholino) propanesulfonic acid (MOPS)-buffered Roswell Park Memorial Institute Medium (RPMI) 1640 (pH 7.0). Tubes were incubated at 30 ° C for 48 h (yeasts) and 28 ° C for 7 days (molds). The antifungal or MM concentration resulting in no visible growth was defined as the minimum inhibitory concentration (MIC) (CLSI, 2017; CLSI, 2008). Similarly prepared cell suspensions were used to determine the MIC of conventional antifungals.

[4] = tested on: E. coli; assay: MIC, E. coli; assay type: cell-based, Escherichia coli BW25113; settings: E. coli, broth microdilution; for MIC: Escherichia coli, read-out: Antibiotic MIC
[5] = tested on: E. coli; assay: Checkerboard interaction with antibiotics (MIC, FIC index), E. coli; assay type: cell-based, Escherichia coli
Experimental: To evaluate synergy between conventional antibiotics and MM in E. coli, the fractional inhibitory concentration (FIC) index (Hall et al., 1983) was determined using a modified checkerboard microtiter test in an 8-by-8 well configuration. Briefly, E. coli cell suspensions were prepared as described for MIC determination with an increasing concentration (0.1-40 μM) of the different MMs, followed by irradiation for 5 min at 146 mW cm^−2. […] The FIC was calculated after dividing the MIC of each antibiotic in combination with different MM by the MIC of the antibiotic alone. The FIC index, obtained by adding both FICs, was interpreted as indicating a synergistic effect if it was ≤0.5, as additive or indifferent if it was >0.5 and ≤2.0, and as antagonistic if it was >2.0 (Hall et al., 1983).

[6] = tested on: A. baumannii; assay: MIC, A. baumannii; assay type: cell-based, Acinetobacter baumannii; settings: Acinetobacter baumannii, read-out: Antibiotic MIC
Experimental: (§1) The appropriate volume of an MM stock at 8 mM necessary to achieve a concentration ranging from 0.3125 to 40 μM was pipetted into a 2 mL microcentrifuge tube to which 1 mL of cell suspension prepared as previously described was added. Corresponding negative controls (DMSO only) were prepared in the same way. The mixture was gently mixed by pipetting and incubated in the dark at 30 or 37 ° C, depending on the strain, for 30 min with agitation (220 rpm). Afterward, MM- or DMSO-treated cells were dispensed in one well of a 24-well plate positioned in the center of the light beam (405 nm LED Light, Prizmatix, UHP—F-5-405) placed at the appropriate distance necessary to achieve the desired light intensity of 304 mW cm-2, 146 mW cm2 or 87 mW cm2, as measured with a handheld digital power meter console coupled to an S415C thermal power sensor head (Thorlabs, Newton, MA, USA). The temperature during irradiation was monitored using a thermocouple probe (Model SC-TT-K-30-36-PP; Omega Engineering, Inc., Stanford, CT, USA). Samples were agitated during irradiation. Dark controls were prepared as previously described except that no irradiation was provided.
(§2) For MIC determination, samples treated with a range of concentrations of the different MM, as described above and were irradiated one at a time for 5 min at 146 mW cm^−2 (43.8 J cm^−2), after which irradiated aliquots were collected and inoculated into 1 mL MHB in a 2 mL microcentrifuge tube. Samples were incubated overnight at 30 or 37 ° C, depending on the strain, without agitation. Corresponding non-irradiated samples and negative controls (without bacteria) were also included. The following day, cultures were inspected for growth and the MIC was identified. The experimental procedure used to determine the MIC of visible light-activated MMs is schematically depicted in FIG. 26.

[7] = tested on: P. aeruginosa; assay: MIC, P. aeruginosa; assay type: cell-based, Pseudomonas aeruginosa
Experimental: as §1, §2

[8] = tested on: S. aureus; assay: MIC, S. aureus; assay type: cell-based, Staphylococcus aureus; settings: S. aureus, broth microdilution
Experimental: as §1, §2

Question: Which “estimated rotation rate after light activation” value [1] does the source give for `COc1cc2c(c3ccccc13)/C(=C1\c3ccccc3Sc3ccc(NCCN(C)C)cc31)[C@H](C)C2` (racemic) [DL-5-872] here?
Answer: Its value is 3 MHz.

Question: With `C[C@@H]1Cc2ccc3c(NCCN(C)C)cccc3c2C1=C1c2ccccc2Sc2ccccc21` (racemic) [DL-5-901] as the compound, how does the “estimated rotation rate after light activation” value [1] read?
Answer: The value was 3 MHz.

Question: With `C[C@@H]1Cc2ccc3c(N(C)CCN(C)C)cccc3c2C1=C1c2ccccc2Sc2ccccc21` (racemic) [DL-5-902] as the compound, how does the “estimated rotation rate after light activation” value [1] read?
Answer: The value was 3 MHz.

Question: Which “estimated rotation rate after light activation” value [1] does the source give for `C[C@@H]1Cc2ccc3c(NCCN)cccc3c2C1=C1c2ccccc2Sc2ccccc21` (racemic) [DL-5-903] here?
Answer: The value was 3 MHz.

Question: With `c1ccc(-c2ccccn2)nc1` [2,2′-dipyridyl] as the compound, how does the “effect of scavenger on MM-induced ROS generation” value [2] read?
Answer: The value was “did not impact MM-induced ROS generation”.

Question: And the “effect of scavenger on MM-induced killing” value [2]?
Answer: Its value is “mitigation of MM-induced killing”.

Question: Which MIC [3] does the source give for `Nc1nc(=O)[nH]cc1F` [5-Fluorocytosine (5-FC), 5-Fluorocytosine] here?
Answer: The MIC was 1 µg/mL.

Question: For `C[C@@H]1CSc2ccc3ccccc3c2/C1=C1\c2ccccc2Sc2cc(NCCN(C)C)ccc21` [ARV-3-202, reference compound], which “estimated rotation rate of slow MM” value [1] is on record?
Answer: The value was ~ 10^−6 Hz.

Question: For `CC1(C)S[C@@H]2[C@H](NC(=O)[C@H](N)c3ccccc3)C(=O)N2[C@H]1C(=O)O` [Ampicillin, reference compound], which MIC [4] is on record?
Answer: Its MIC is 0.063 µg/mL (≈ 0.18 µM).

Question: With `O=C(O)c1cn(C2CC2)c2cc(N3CCNCC3)c(F)cc2c1=O` [Ciprofloxacin, reference compound] as the compound, how does the MIC [4] read?
Answer: The MIC was 0.008 µg/mL (≈ 0.0241 µM).

Question: For `OC(Cn1cncn1)(Cn1cncn1)c1ccc(F)cc1F` [Fluconazole (FLC), Fluconazole], which MIC [3] is on record?
Answer: The MIC was 0.5 µg/mL.

Question: For `CC1(C)CC(NC(=O)C[P+](c2ccccc2)(c2ccccc2)c2ccccc2)CC(C)(C)N1[O]` [MitoTEMPO], which “effect of scavenger on MM-induced ROS generation” value [2] is on record?
Answer: Its value is “reduced ROS generation”.

Question: And the “effect of scavenger on MM-induced killing” value [2]?
Answer: Its value is “did not affect survival following MM treatment”.

Question: What does the source list for `CO[C@@H]1[C@@H](OC(N)=O)[C@@H](O)[C@H](Oc2ccc3c(O)c(NC(=O)c4ccc(O)c(CC=C(C)C)c4)c(=O)oc3c2C)OC1(C)C` [Novobiocin]?
Answer: potentiation of antibiotic by MM pre-treatment ([5]; E. coli): up to 64 fold; FIC index with MM ([5]; E. coli, MM and novobiocin): ≤ 0.5; antibiotic MIC after pre-treatment with MM 1 ([5]; E. coli, light-activated MM 1): 0.0075 µg/mL; antibiotic MIC after pre-treatment with MM 5 ([5]; E. coli, light-activated MM 5): 0.0075 µg/mL; antibiotic MIC after pre-treatment with MM 6 ([5]; E. coli, light-activated MM 6): 0.015 µg/mL; MIC ([5]; Escherichia coli, 18 h, read-out: antibiotic MIC alone): 0.48 µg/mL; MIC [4]: 64 µg/mL (≈ 104 µM)

Question: With `CN(C)[C@@H]1C(O)=C(C(N)=O)C(=O)[C@@]2(O)C(O)=C3C(=O)c4c(O)cccc4[C@@](C)(O)[C@H]3C[C@@H]12` [Tetracycline, reference compound] as the compound, how does the MIC [6] read?
Answer: The MIC was 8 µg/mL (≈ 18 µM).

Question: What does the source list for `COc1cc(Cc2cnc(N)nc2N)cc(OC)c1OC` [Trimethoprim, reference compound]?
Answer: MIC ([7]; Pseudomonas aeruginosa, read-out: Antibiotic MIC): 128 µg/mL (≈ 441 µM); MIC [4]: 1 µg/mL (≈ 3.44 µM)

Question: With Gentamicin [reference compound] as the compound, how does the “Antibiotic MIC” value ([7]; P. aeruginosa, broth microdilution) read?
Answer: Its value is 1 μg per mL.

Question: What about the “Antibiotic MIC” value [4] of the same compound?
Answer: The value was 1 μg per mL.

Question: And the “Antibiotic MIC” value [8]?
Answer: The value was 2 μg per mL.
